Data published in ChEMBL document CHEMBL4049459, “1,4,5-Trisubstituted Imidazole-Based p53-MDM2/MDMX Antagonists with Aliphatic Linkers for Conjugation with Biological Carriers” (J Med Chem, 2017).
pIC50: −log10 of the molar value. Active and inactive are the calls of the source. The calls are words filed in the database; no cut-off is given here.

Experiments:
[1] = system: U2OS; experiment: Cell cycle arrest in wild type p53 expressing human U2OS cells assessed as decrease in accumulation at S phase at 5 uM after 24 hrs by propidium iodide-based FACS analysis; type: functional
[2] = system: U2OS; experiment: Cell cycle arrest in wild type p53 expressing human U2OS cells assessed as increase in accumulation at G1 phase at 5 uM after 24 hrs by propidium iodide-based FACS analysis; type: functional
[3] = system: SAOS-2; experiment: cells; conditions: Homo sapiens, SAOS-2, 24 h
Description: Cytotoxicity against p53 deficient human Saos2 cells assessed as cell growth inhibition after 24 hrs by MTT assay

[4] = system: U2OS; experiment: cells; conditions: Homo sapiens, 24 h
Description: Cytotoxicity against wild type p53 expressing human U2OS cells assessed as cell growth inhibition after 24 hrs by MTT assay

[5] = system: U2OS; experiment: Cell cycle arrest in wild type p53 expressing human U2OS cells assessed as decrease in accumulation at S phase at 10 uM after 24 hrs by propidium iodide-based FACS analysis; type: functional
[6] = system: U2OS; experiment: Cell cycle arrest in wild type p53 expressing human U2OS cells assessed as increase in accumulation at G1 phase at 10 uM after 24 hrs by propidium iodide-based FACS analysis; type: functional
[7] = target: E3 ubiquitin-protein ligase Mdm2 (Homo sapiens) (UniProt Q00987); experiment: Inhibition of p53-MDM2 interaction in human U2OS cells assessed as p53 activation by measuring p21 accumulation at 1 uM after 7 hrs by Western blot analysis; type: cell-based
[8] = target: E3 ubiquitin-protein ligase Mdm2 (Homo sapiens) (UniProt Q00987); experiment: Inhibition of p53-MDM2 interaction in human U2OS cells assessed as p53 activation by measuring increase in MDM2 expression at 1 uM after 7 hrs by Western blot analysis; type: cell-based
[9] = target: E3 ubiquitin-protein ligase Mdm2 (Homo sapiens) (UniProt Q00987); experiment: Inhibition of p53-MDM2 interaction in human U2OS cells assessed as p53 activation by measuring increase in p21 expression at 1 uM after 24 hrs by Western blot analysis; type: cell-based
[10] = target: E3 ubiquitin-protein ligase Mdm2 (Homo sapiens) (UniProt Q00987); experiment: Inhibition of p53-MDM2 interaction in human HCT116 cells assessed as p53 activation by measuring increase in MDM2 expression at 1 uM after 7 hrs by Western blot analysis; type: cell-based
[11] = target: E3 ubiquitin-protein ligase Mdm2 (Homo sapiens) (UniProt Q00987); experiment: Inhibition of p53-MDM2 interaction in human U2OS cells assessed as p53 accumulation at 1 uM after 7 hrs by Western blot analysis; type: cell-based
[12] = target: E3 ubiquitin-protein ligase Mdm2 (Homo sapiens) (UniProt Q00987); experiment: Inhibition of p53-MDM2 interaction in human HCT116 cells assessed as p53 activation by measuring increase in p21 expression at 1 uM after 24 hrs by Western blot analysis; type: cell-based
[13] = system: U2OS; experiment: Cell cycle arrest in wild type p53 expressing human U2OS cells assessed as decrease in accumulation at S phase at 1 uM after 24 hrs by propidium iodide-based FACS analysis; type: functional
[14] = system: U2OS; experiment: Cell cycle arrest in wild type p53 expressing human U2OS cells assessed as increase in accumulation at G1 phase at 1 uM after 24 hrs by propidium iodide-based FACS analysis; type: functional
[15] = Selectivity ratio of IC50 for human Saos2 cells to IC50 for human U2OS cells

E3 ubiquitin-protein ligase Mdm2 (Homo sapiens), sequence (Q00987 whole entry, looked up): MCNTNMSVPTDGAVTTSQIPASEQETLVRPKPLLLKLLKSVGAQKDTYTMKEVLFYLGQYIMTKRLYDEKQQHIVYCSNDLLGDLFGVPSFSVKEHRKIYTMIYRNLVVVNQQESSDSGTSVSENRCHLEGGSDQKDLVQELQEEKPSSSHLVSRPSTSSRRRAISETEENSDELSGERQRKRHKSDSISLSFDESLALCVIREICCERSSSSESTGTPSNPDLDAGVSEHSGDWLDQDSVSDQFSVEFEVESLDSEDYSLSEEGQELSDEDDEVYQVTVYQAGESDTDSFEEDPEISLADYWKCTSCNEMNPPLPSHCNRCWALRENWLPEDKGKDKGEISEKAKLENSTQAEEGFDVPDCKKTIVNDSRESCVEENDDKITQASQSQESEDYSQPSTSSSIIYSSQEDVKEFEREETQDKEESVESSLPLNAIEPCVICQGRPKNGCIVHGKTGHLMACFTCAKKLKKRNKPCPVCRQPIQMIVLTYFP

Row | pIC50 [3] | pIC50 [4] | Structure (SMILES) | Activity [1] | Activity [2] | Activity [5] | Activity [6] | further results
1 | 4.93 | 5.14 | O=C(OCCN1CCOCC1)c1[nH]c2cc(Cl)ccc2c1-c1c(-c2ccc(F)cc2)ncn1Cc1ccc(Cl)cc1 | Active | Active | – | – | –
2 | 5.15 | 5.44 | O=C(NCCN1CCOCC1)c1[nH]c2cc(Cl)ccc2c1-c1c(-c2ccc(F)cc2)ncn1Cc1ccc(Cl)cc1 | Active | Active | Active | Active | –

The next lines start with the molecule.

Row | Structure (SMILES) | pIC50 [3] | pIC50 [4] | Activity [1] | Activity [2] | Activity [5] | Activity [6] | further results
3 | O=C(O)CCC(=O)OCCCCCCOC(=O)c1[nH]c2cc(Cl)ccc2c1-c1c(-c2ccc(F)cc2)ncn1Cc1ccc(Cl)cc1 | – | – | – | – | Active | Active | –
4 | O=C(O)c1[nH]c2cc(Cl)ccc2c1-c1c(-c2ccc(F)cc2)ncn1Cc1ccc(Cl)cc1 | 4.25 | 4.76 | – | – | Active | Active | –
5 | COc1cc(C(=O)O)ccc1NC(=O)[C@@H]1N[C@@H](CC(C)(C)C)[C@](C#N)(c2ccc(Cl)cc2F)[C@H]1c1cccc(Cl)c1F | – | – | – | – | – | – | inhibition [7]: Active; inhibition [8]: Active; inhibition [9]: Active; inhibition [10]: Active; inhibition [11]: Active; inhibition [12]: Active; Activity [13]: Active; Activity [14]: Active
6 | O=C(O)CCC(=O)NCCCCCCOC(=O)c1[nH]c2cc(Cl)ccc2c1-c1c(-c2ccc(F)cc2)ncn1Cc1ccc(Cl)cc1 | – | – | Active | Active | – | – | –
7 | COc1ccc(C2=N[C@H](c3ccc(Cl)cc3)[C@H](c3ccc(Cl)cc3)N2C(=O)N2CCNC(=O)C2)c(OC(C)C)c1 | 4.70 | 5.58 | – | – | – | – | Ratio IC50 [15]: 7.59
